Read-outs that look alike come from different tables or passages of the source.
Test: Evaluation of solubilities of photoinitiators in cationic active diluents
Assay type: physicochemical
Conditions: for Solubility in DOX: diluent DOX: 3,3′-[oxybismethylene]bis[3-ethyl] oxetane; for Solubility in DVE-3: diluent DVE-3: triethyleneglycol divinyl ether; for Solubility in Epoxy resin 6110: diluent Epoxy resin 6110: 3.4-epoxycyclohexylmethyl-3,4-epoxycyclohexyl carboxylate
[1] = diluent POX: 3-ethyl-3-(phenoxymethyl) oxetane

## phenylthiophenyl diphenylsulfonium hexafluoroantimonate [UVI6992, reference compound]
  Solubility in DOX: <2%
  Solubility in DVE-3: <2%
  Solubility in Epoxy resin 6110: <2%
[1]
  Solubility in POX: <2%

## COC(=O)C(=O)c1ccc(Sc2ccc([S+](c3ccc(Sc4ccc(C(=O)C(=O)OC)cc4)cc3)c3ccc(Sc4ccc(C(=O)C(=O)OC)cc4)cc3)cc2)cc1 [Compound 1]
  Solubility in DOX: >10%
  Solubility in DVE-3: >10%
  Solubility in Epoxy resin 6110: >10%
[1]
  Solubility in POX: >10%

## [F][Sb-]([F])([F])([F])([F])[F].[F][Sb-]([F])([F])([F])([F])[F].c1ccc([S+](c2ccccc2)c2ccc(Sc3ccc([S+](c4ccccc4)c4ccccc4)cc3)cc2)cc1 [UVI6976, bis(4,4′-thioethertriphenylsulfonium) hexafluoroantimonate, reference compound]
  Solubility in POX: <2%
  Solubility in DOX: <2%
  Solubility in DVE-3: <2%
  Solubility in Epoxy resin 6110: <2%

## CCOC(=O)C(=O)c1ccc(Oc2ccc([S+](c3ccccc3)c3ccccc3)cc2)cc1 [Compound 2]
  Solubility in DOX: >10%
  Solubility in DVE-3: >10%
  Solubility in Epoxy resin 6110: >10%
[1]
  Solubility in POX: >10%

## CCOC(=O)C(=O)c1ccc(Oc2ccc([S+](c3ccc(C)cc3)c3ccc(C)cc3)cc2)cc1 [Compound 7]
  Solubility in DOX: >10%
  Solubility in DVE-3: >10%
  Solubility in Epoxy resin 6110: >10%
[1]
  Solubility in POX: >10%
